Measured values published in US10449261B2, “Compositions targeting radiation-induced molecules and methods of use thereof” (Washington University, priority 2014, dated 2019).
“Also recorded” adds a separate entry of the source. Numbered stars: 1 amine (or outer) side, 2 acyl side, 3 side chain; on linkers, the order of the positions; unused ones are H or OH. Primed or numbered codes have the meaning given here. Ends that are not written are not given here. * marks the point of attachment. K(CHX-A″-DTPA) = O=C(O)CN(CC(=O)O)[C@H](Cc1ccc(NC(=S)NCCCC[C@H](N[*:1])C(=O)[*:2])cc1)CN(CC(=O)O)[C@H]1CCCC[C@@H]1N(CC(=O)O)CC(=O)O; FITC = O=C1OC2(c3ccc(O)cc3Oc3cc(O)ccc32)c2ccc(NC(=S)*)cc21; DTPA = O=C(O)CN(CCN(CC(=O)O)CC(=O)O)CCN(CC(=O)O)CC(=O)*; PEG = not defined here; AEEA = NCCOCCOCC(=O)O

Tests used:
[1] = tested on: cervical (HT3) heterotopic tumors; conditions: for effect of tumor irradiation on tumor binding: HT3, right hind limb 3 fractions of 3 Gy vs sham left
Experimental: (§7) Nude mice bearing the HT3 and OE33 tumors in both the hind limbs were used (˜1 cm^3). Since radiotherapy is used in treating cervical and esophageal cancers, we also irradiated the tumors. The tumor on the right hind limb was irradiated with 3 fractions of 3 Gy over a course of 24 h, the tumor on the left hind limb was used as sham control. The mice were then injected with 500 μCi (10 μCi/μg) of radiolabeled peptide via tail vein. SPECT/CT imaging was performed at 48 and 72 h post injection.
(§8) Tumor models were established in 6 to 8-week-old female athymic nude mice obtained from Harlan laboratories (USA). Heterotopic tumors were induced by sub-cutaneously injecting tumor cells (1-3×10^6) into hind limbs of athymic nude mice. The tumors were grown until a size of 1 cm^3 before using the mice for SPECT imaging.
(§9) Whole body SPECT images were obtained at 48 and 72 h post injection (p.i.) using a NanoSPECT/CT imager (Bioscan Inc., Washington, D.C., USA) fitted with 2 mm pinhole collimators in helical scanning mode. Mice were placed in prone position and scanned under anesthesia (0.5 L/min 1.5% isoflurane in air). A 45-keV helical CT scan was performed first and then the SPECT acquisition was performed at 24 projections and 60 s per projection, for a total scan time of about 45 min. Tomographic data were reconstructed iteratively with the manufacturer-supplied InVivoScope and HiSPECT software for CT and SPECT, respectively.
(§10) After scanning, 96 h p.i., the bio-distribution of the labelled peptide in various organs was determined. The animals were sacrificed and organs of interest including blood were dissected/collected, weighed, and counted in a gamma counter along with a standard of the injected activity to allow calculation of the injected dose per organ (% ID/organ).

cancer = assay: Optimisation of the peptide construct: circulation and cancer binding; conditions: in vivo
Source text: The GIRLRG (SEQ ID NO:1) peptide conjugated to a poly-lysine linker for DOTA and DTPA conjugation was first studied. […] The duration of tumor binding was improved by PEGylation, with longer circulation times and prolonged imaging in cancer. […] Both PEG20 and PEG40 are effective at enhancing prolonged binding in cancer. […]

cervix tumors = assay: SPECT imaging of 111In-labeled PEG-GIRLRG (Example 1); type: in vivo, mouse; conditions: 72 hours following administration, 3 Gy vs 0Gy
Experimental: (§1) The right hind limb tumor was treated with 3 Gy and left hind limb tumor is an untreated (0Gy) internal control in the same mouse.

brain tumors = assay: as above; type: in vivo, mouse; conditions: 72 hours following administration, 3 Gy vs 0Gy
Experimental: as §1

esophageal tumors = assay: as above; type: in vivo, mouse; conditions: 72 hours following administration, 3 Gy vs 0Gy
Experimental: as §1

[2] = tested on: esophageal (OE33) heterotopic tumors; assay: NanoSPECT/CT imaging and post-SPECT biodistribution in tumor bearing nude mice; conditions: for effect of tumor irradiation on tumor binding: OE33, right hind limb 3 fractions of 3 Gy vs sham left; for tumor uptake, post-SPECT biodistribution, compared to control peptide: OE33 tumor bearing mice, 96 h after injection; for tumor binding by SPECT imaging: OE33 tumors, 48 h and 72 h post injection, 500 μCi via tail vein
Experimental: as §7, §8, §9, §10

[3] = tested on: lung cancer (A549) tumors; assay: SPECT/CT imaging of tumor models; type: in vivo, mice; conditions: right hind limb 3 doses of 3 Gy
Source text: (§2) In addition we also screened lung cancer (A549), pancreatic cancer (BxPC3) and glioblastoma (D54) tumor models for binding of radiolabeled GIRLRG (SEQ ID NO:1) peptide.

[4] = tested on: glioblastoma (D54) tumors; assay: SPECT/CT imaging of tumor models; type: in vivo, mice; conditions: right hind limb 3 doses of 3 Gy
Source text: as §2

[5] = tested on: pancreatic cancer (BxPC3) tumors; assay: SPECT/CT imaging of tumor models; type: in vivo, mice; conditions: right hind limb 3 doses of 3 Gy
Source text: as §2

A549 (lung cancer) = assay: Binding of FITC-conjugated GIRLRG to cancer cells (fluorescent microscope); type: cell-based, human; conditions: 10 μg/ml, 2 h, 37° C.
Experimental: (§3) Four cancer cell lines D54 (glioma), HT3 (cervical), OE33 (eosophageal) and A549 (lung cancer) were used to evaluate binding of GIRLRG (SEQ ID NO:1) peptide. Cancer cells were incubated with FITC-conjugated GIRLRG (SEQ ID NO:1) peptide and fluorescent images were acquired using a fluorescent microscope.
(§4) Cell Lines: Human lung adenocarcinoma A549 and Human glioblastoma D54 cells were cultured in DMEM/F12, human esophageal carcinoma OE33 cells in RPMI and HT3 cells in IMDM media supplemented with 10% fetal bovine serum, penicillin and streptomycin. They were maintained at 37° C. in a 5% CO2 incubator.
(§5) Immunofluorescence: Cancer cells (A549, HT3, D54 and OE33) were grown on chamber slides (Millipore, USA) and incubated with 10 μg/ml FITC-GIRLRG (SEQ ID NO:1) peptide for 2 h at 37° C. in a CO2 incubator. The cells were then washed with PBS to remove unbound peptide and fixed with 4% paraformaldehyde at room temperature. The nuclei were stained with DAPI and fluorescent images were captured using a Carl Zeiss microscope (Tokyo, Japan).

OE33 (eosophageal) = assay: as above; type: cell-based, human; conditions: 10 μg/ml, 2 h, 37° C.
Experimental: as §3, §4, §5

D54 (glioma) = assay: as above; type: cell-based, human; conditions: 10 μg/ml, 2 h, 37° C.
Experimental: as §3, §4, §5

HT3 (cervical) = assay: as above; type: cell-based; conditions: 10 μg/ml, 2 h, 37° C.
Experimental: as §3, §4, §5

[6] = Size and aggregation of pegylated peptides (dynamic light scattering); type: physicochemical
[7] = tested on: irradiated mouse A549 tumors; assay: SPECT imaging and gamma emission of organs and tumors (Example 1); type: in vivo, mice; conditions: A549 tumors, 7 days after administration
Experimental: (§6) SPECT images of the spatial and temporal pharmacokinetics of ^111In-labeled PEG-GIRLRG and ^111In-labeled control peptide within irradiated mouse A549 tumors is shown in FIG. 1. At 7 days after administration, gamma emission from each of the organs and tumors of mice injected with PEG-GIRLRG (SEQ ID NO:1) and PEG-control peptide was measured (FIG. 2).

irradiated A549 tumors = assay: as above; type: in vivo, mice; conditions: mice with A549 tumors, 3 Gy
Experimental: as §6

[8] = molecular target: T1, recombinant eukaryotic GRP78 protein (Prospec, USA) (UniProt P11021 19-654, limits assumed); assay: SPR (BIAcore 2000), GRP78 amine-coupled on a CM4 chip, peptide as analyte at 0.313-10 mM, 25 C, HBS-EP
T1 construct: Immobilised by amine coupling on a CM4 chip; also called Glucose-regulated protein 78 kDa; Glucose Regulatory Protein-78
Experimental: To determine the binding affinity of GIRLRG (SEQ ID NO:1) peptide to GRP78 protein, we used surface plasmon resonance technology. GRP78 protein was immobilized on the surface of CM4 sensor chip and approximately 7000 resonance Units (RUs) of GRP78 protein were immobilized (FIG. 6A). The GIRLRG (SEQ ID NO:1) peptide was dissolved in HBS-EP buffer at various concentrations (10, 5, 2.5, 1.25 and 0.313 mM) and passed over the immobilized GRP78 for 2 min (FIG. 6B). The rate constant K_D was obtained by fitting the sensogram data after reference subtraction (data from blank channel) using the BIA evaluation 3.0 software.
Surface Plasmon Resonance (SPR): Affinity of GIRLRG (SEQ ID NO:1) to GRP78 protein was measured by the biosensor-based SPR technique using an automatic apparatus BIAcore 2000 (GE healthcare, Sweden) as described earlier. The recombinant eukaryotic GRP78 protein (Prospec, USA) as ligand that was immobilized by amine coupling on the CM4 sensor surface and GIRLRG (SEQ ID NO:1) peptide was used as the analyte. Experiments were performed at 25° C. in HBS-EP buffer (GE healthcare). GRP78 protein was immobolized using surface preparation wizard for amine coupling. […] The affinity of the interaction was determined from the level of binding at equilibrium as a function of the sample concentrations by BIA evaluation software 3.0.

T1 sequence (P11021 19-654 limits assumed): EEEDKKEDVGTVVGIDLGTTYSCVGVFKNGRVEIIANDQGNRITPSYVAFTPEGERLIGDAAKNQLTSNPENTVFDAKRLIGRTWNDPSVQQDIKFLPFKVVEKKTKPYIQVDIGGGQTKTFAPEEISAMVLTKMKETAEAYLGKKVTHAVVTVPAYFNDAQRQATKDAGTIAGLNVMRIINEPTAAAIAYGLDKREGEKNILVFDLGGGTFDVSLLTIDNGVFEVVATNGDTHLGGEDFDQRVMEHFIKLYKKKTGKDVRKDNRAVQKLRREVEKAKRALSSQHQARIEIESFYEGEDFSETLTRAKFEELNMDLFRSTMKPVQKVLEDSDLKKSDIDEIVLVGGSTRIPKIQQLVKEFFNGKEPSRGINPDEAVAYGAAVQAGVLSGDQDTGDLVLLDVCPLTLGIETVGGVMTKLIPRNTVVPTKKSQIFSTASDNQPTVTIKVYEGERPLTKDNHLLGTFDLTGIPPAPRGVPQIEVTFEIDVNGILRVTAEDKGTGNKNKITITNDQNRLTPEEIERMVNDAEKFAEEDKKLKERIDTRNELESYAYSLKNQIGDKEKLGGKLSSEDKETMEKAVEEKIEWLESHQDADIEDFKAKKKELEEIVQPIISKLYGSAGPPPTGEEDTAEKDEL

## ^111In-labeled PEG-DTPA-GIRLRG: PEG-GIRLRG radiolabeled with ^111Indium by use of DTPA as the chelator ({PEG-DTPA}-GIRLRG; reading uncertain; also: radiolabeled with 111In chelated by DTPA)
[1]
  effect of tumor irradiation on tumor binding: did not affect tumor binding
[1]; HT3 tumors, 48 h and 72 h post injection, 500 μCi via tail vein
  tumor binding by SPECT imaging: bound
cancer
  cancer binding: binds within irradiated cancers
Cervix tumors
  cancer selective binding: cancer selective binding
Brain tumors
  cancer selective binding: cancer selective binding
Esophageal tumors
  cancer selective binding: cancer selective binding
[2]
  effect of tumor irradiation on tumor binding: did not affect tumor binding
  tumor uptake, post-SPECT biodistribution, compared to control peptide: Significantly higher (p<0.001) uptake
  tumor binding by SPECT imaging: bound
[3]
  tumor binding by SPECT/CT imaging: enhanced binding
[4]
  tumor binding by SPECT/CT imaging: enhanced binding
[5]
  tumor binding by SPECT/CT imaging: enhanced binding

## FITC-GIRLRG: FITC-conjugated GIRLRG peptide ({FITC}-GIRLRG)
A549 (lung cancer)
  binding to cancer cells: specifically bound
A549 (lung cancer); listed as FITC labeled GIRLRG
  binding to cancer cells: showed binding
OE33 (eosophageal)
  binding to cancer cells: specifically bound
OE33 (eosophageal); listed as FITC labeled GIRLRG
  binding to cancer cells: showed binding
D54 (glioma)
  binding to cancer cells: specifically bound
D54 (glioma); listed as FITC labeled GIRLRG
  binding to cancer cells: showed binding
HT3 (cervical)
  binding to cancer cells: specifically bound
HT3 (cervical); listed as FITC labeled GIRLRG
  binding to cancer cells: showed binding

## GIRLRG [GIRLRG]
[1]
  effect of tumor irradiation on tumor binding: did not interfere with specific binding
[2]
  effect of tumor irradiation on tumor binding: did not interfere with specific binding

## mPEG40K-carbonyl-Lys(CHX-A″-DTPA)-AEEAc-Lys(CHX-A″-DTPA)-AEEAc-Trp-Lys(CHX-A″-DTPA)-AEEAc-GIRLRG ({mPEG40K‑carbonyl-K(CHX-A″-DTPA)-AEEA-K(CHX-A″-DTPA)-AEEA-Trp-K(CHX-A″-DTPA)-AEEA}-GIRLRG) [PEG-GIRLRG, GIRLRG peptide conjugated to 40 kDa PEG with DTPA as the chelator]
[6]
  size: 8 nm
[6]; after heating / radiolabeling conditions
  aggregation: did not aggregate even after heating
[2]
  tumor uptake, post-SPECT biodistribution, compared to control peptide: Significantly higher uptake
  tumor binding by SPECT imaging: specifically bound; also recorded: Enhanced tumor binding
[3]
  tumor binding by SPECT/CT imaging: specific binding; also recorded: Enhanced tumor binding
[4]
  tumor binding by SPECT/CT imaging: specific binding; also recorded: Enhanced tumor binding
[5]
  tumor binding by SPECT/CT imaging: specific binding; also recorded: Enhanced tumor binding
[7]
  tumor binding (gamma emission from organs and tumors): selectively bound to tumors
Irradiated A549 tumors
  binding to irradiated normal tissue: did not bind to irradiated normal tissue

B1: GIRLRG (SEQ ID NO:1) peptide (peptide)
peptide: GIRLRG
notes: Unconjugated synthetic hexapeptide, used as the analyte in SPR and as the ligand in the molecular model; also called lead peptide
[8]
  Kd: 2160 µM
